According to paper PMC3516572, “MiniCD4 Microbicide Prevents HIV Infection of Human Mucosal Explants and Vaginal Transmission of SHIV162P3 in Cynomolgus Macaques” (PLoS Pathogens, 2012):

Legend:
SHIV162P3 = settings: cited from earlier work
Excerpt: The use of effective therapeutic drugs, such as tenofovir and more recently dapivirine tested in phase III trial, targeting post-entry events in the viral replication cycle (reverse transcription, integration and viral maturation) remains attractive, however the impact of their dual use in prevention and therapy on the potential induction of resistance evolution remains controversial. In contrast drugs that target the initial steps of viral attachment to CD4 and one of two co-receptors (CCR5 or CXCR4) triggering viral fusion with susceptible targets cells (entry inhibitors) are not widel ...

penile tissue explants = assay: MTT viability assay on penile tissue explants; type: cell-based, human; settings: 24 h at 37°C, then MTT 2 h; M48U1 ten-fold dilutions, highest concentrations tested; nonoxynol-9 at 500 ng/mL; two independent experiments in triplicates
Excerpt: Cervical tissue was obtained from patients undergoing planned therapeutic hysterectomy at St. George's Hospital in London, United Kingdom. Surgically resected specimens of colorectal tissue were collected at St. George's Hospital, London, United Kingdom. Penile tissue (glans) was obtained from individuals undergoing gender reassignment surgery at Charing Cross Hospital. All tissues were collected after signed informed consent was received from all patients and under protocols approved by the Local Research Ethics Committee (National Research Ethic Service NHS). On arrival in the laboratory, resected tissue was cut into 2–3 mm^3 explants comprising both epithelial and stromal tissue or muscularis mucosae, depending on the tissue, as described previously, [22].
Penile tissues and PM-1 T cells were incubated in complete RPMI medium supplemented with ten-fold dilutions of M48U1 for 24 h at 37°C. Nonoxynol-9 microbicide (tested at 500 ng/mL) was employed as cytotoxic reference. […] For tissue, after releasing the formazan in ethanol overnight, cytotoxicity was determined by measuring the optical density of the purple formazan product at 570–690 nm using Synergy HT multi-detection microplate reader. For PM-1 cells, the absorption of the formazan product was determined after lysis of the cells.

PM-1 T cells = assay: MTT viability assay on PM-1 T cells; type: cell-based; settings: 24 h at 37°C, then MTT 2 h; M48U1 ten-fold dilutions, highest concentrations tested; nonoxynol-9 at 500 ng/mL; two independent experiments in triplicates
Procedure: Penile tissues and PM-1 T cells were incubated in complete RPMI medium supplemented with ten-fold dilutions of M48U1 for 24 h at 37°C. Nonoxynol-9 microbicide (tested at 500 ng/mL) was employed as cytotoxic reference. The compounds were removed and the tissue explants and cells were incubated for 2 h in medium containing 500 µg/mL of 3-(4,5-dimethylthiazol-2-yl)-2,5-diphenyltetrazolium bromide (MTT). For tissue, after releasing the formazan in ethanol overnight, cytotoxicity was determined by measuring the optical density of the purple formazan product at 570–690 nm using Synergy HT multi-detection microplate reader. For PM-1 cells, the absorption of the formazan product was determined after lysis of the cells.

SMILES	Protection of NHP from vaginal challenge with SHIV162P3 (SHIV162P3)	Cytotoxicity (MTT) in penile tissue (penile tissue explants)	Cytotoxicity (MTT) in PM-1 T-cell line (PM-1 T cells)
COc1ccnc2[nH]cc(C(=O)C(=O)N3CCN(C(=O)c4ccccc4)C[C@H]3C)c12 [BMS-378806]	could protect NHP	–	–
CCCCCCCCCc1ccc(OCCOCCOCCOCCOCCOCCOCCOCCOCCO)cc1 [nonoxynol-9]	–	significant toxicity	significant toxicity
